Data: patent US20050187187A1, “Carboxyl-reduced derivatives of chondroitin sulfate, preparation thereof, use thereof as a medicinal product and the pharmaceutical compositions containing them” (Aventis Pharmas S.A., priority 2003, published 2005)

What was measured:
[1] = target: T1, bovine factor Xa (Bos taurus, UniProt P00743); assay: Inhibition of factor Xa, chromogenic substrate S-2765 with human antithrombin III; assay type: biochemical; details: calibrated against Enoxaparin standard
Description: For the calibration, a standard sample of low molecular weight heparin (Enoxaparin) was used as reference.
The serial dilutions of the assay compound are prepared in a 0.046 M Tris buffer, pH 8.4, containing 0.15 M NaCl, 0.007 M EDTA, 0.1% of Tween 80 and 0.12 IU/ml of human antithrombin III. The samples of 50 μl of the respective dilutions are incubated with 50 μl of bovine factor Xa (13.6 U/ml) at 37° C. for 80 seconds. Next, 50 μl of chromogenic substrate, 1.1 mM S-2765, are added. The absorbance at 405 nm is measured in a photometer. The activity of the deblocked factor Xa is indicated by the emission of p-nitroaniline from the substrate.
Compared to the reference heparin compound (100 U/mg), the glycosamonoglycans present a factor Xa, with much lower inhibitory activity: […]

[2] = target: T2, MMP-2 (gelatinase-A) (Homo sapiens, UniProt P08253); assay: MMP-2 inhibitory activity, commercial ELISA kit; assay type: biochemical; details: MMP-2 800 ng/ml; dilution series in PBS buffer, pH 7.5; in words
T2 construct: purchased Amersham Biosciences RPN2617
T2 sequence (P08253 110-660): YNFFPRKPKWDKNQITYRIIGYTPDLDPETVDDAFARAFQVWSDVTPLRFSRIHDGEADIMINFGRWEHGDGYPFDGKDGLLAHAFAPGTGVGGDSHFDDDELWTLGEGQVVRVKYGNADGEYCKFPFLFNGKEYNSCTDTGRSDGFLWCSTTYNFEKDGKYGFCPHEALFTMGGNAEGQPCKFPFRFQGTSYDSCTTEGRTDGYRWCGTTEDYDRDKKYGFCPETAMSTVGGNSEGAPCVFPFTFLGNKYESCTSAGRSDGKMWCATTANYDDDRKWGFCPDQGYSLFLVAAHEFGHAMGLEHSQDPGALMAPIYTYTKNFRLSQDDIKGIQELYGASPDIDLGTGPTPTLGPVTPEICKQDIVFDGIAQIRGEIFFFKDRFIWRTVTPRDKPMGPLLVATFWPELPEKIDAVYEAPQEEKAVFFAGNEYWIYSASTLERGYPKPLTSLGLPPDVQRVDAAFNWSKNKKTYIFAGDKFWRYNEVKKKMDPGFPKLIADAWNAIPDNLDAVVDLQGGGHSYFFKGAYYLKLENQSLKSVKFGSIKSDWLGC
Description: Effect of the Carboxyl-Reduced Persulfate Derivative (Example 1) for Human Metalloproteases MMP-2 (gelatinase-A) and MMP7
Commercial ELISA kits (such as those provided, for example, by the company Amersham Biosciences, kits RPN2617 and RPN2620) were used, respectively, to determine the inhibitory activity with respect to the MMP-2 and MMP-7 enzymes. The concentrations of the enzymes are, respectively, 800 ng/ml for MMP-2. The tests were carried out in accordance with the manufacturer's recommendations, by performing a series of dilutions of the compound to be studied in a PBS buffer, pH 7.5.

[3] = target: aggrecanase; assay: Effect on aggrecanase: conversion of recombinant substrate Agg1mut, ELISA with BC-3 antibody; assay type: biochemical; details: for % Conversion: conversion of the substrate by aggrecanase in the supernatant
Description: Effect of the carboxyl-reduced derivatives on the aggrecanase in synovial fluids or on preparations of recombinant ADAMTS protein.
The analysis is carried out on 96-well plates. Before the analysis, serial dilutions of the assay compounds are prepared in an aqueous solution.
In each well, a fixed volume of synovial fluid or aggrecanase activity generating a known increase, between 1.0 and 1.4 absorbance units (405 nm), under the conditions of the analysis, is mixed with 3 μl of solution of compound from the respective dilution step. Dulbecco's modified Eagle's medium (DMEM) is added to each well to give a final volume of 300 μl. The plate is then incubated for 1 hour at 37° C. in a carbon dioxide atmosphere.
After the addition of 5 μl of a solution of 1 μg/μl of recombinant substrate Agglmut in DMEM to each well (substrate as described by Bartnik E. et al., EP 785274, 1997), the reagent mixture is incubated for 4 hours at 37° C. under a carbon dioxide atmosphere.
In a first step, the microplate is coated with 100 μl per well of a commercial goat anti-mouse IgG antibody for 1 hour at ambient temperature (5 μg/ml in a phosphate buffered saline solution, pH 7.4 [PBS buffer]). After washing with the PBS buffer containing 0.1% of Tween-20 (washing buffer), the wells are blocked by means of a step consisting of a one hour incubation with 100 μl per well of 5% bovine serum albumin in a PBS buffer containing 0.05% of Tween-20. Following another rinse with the washing buffer, each well is incubated with 100 μl of a solution, diluted to 1:1000, of BC-3 antibody in a PBS buffer containing 0.05% of Tween 20 and 0.5% of bovine serum albumin, at ambient temperature for one hour. This antibody recognizes the typical aggrecanase cleavage fragments (Hughes C. E. et al., Biochem. J. 305 (3), 799-804, 1995).
After another rinse of the analytical plate with the washing buffer, the complete set of mixtures originating from the preceding digestion is transferred to this plate, well by well, and incubated at ambient temperature for one hour. The plate is again washed as above. Next, 100 μl of the second antibody (anti-human IgG antibody labeled with peroxidase, 1:1000 in PBS containing 0.5% of BSA and 0.05% of Tween-20) are added to each well, with subsequent incubation at ambient temperature again for one hour. After a final rinse with the washing buffer, the color development is initiated by adding 100 μl of ABTS substrate solution (2 mg/ml, 2,2′-azinobis (3-ethylbenzothiazolinesulfonic acid) in 40 mM of sodium citrate plus 60 mM of disodium hydrogen phosphate, adjusted to a pH of 4.4 by adding acetic acid; 0.25 μl of 35% hydrogen peroxide added per ml immediately before measurement). The measurement is carried out by means of the screen mode using detection at 405 nm relative to a reference filter (620 nm) with automatic readings at 5-second intervals. The development is stopped as soon as the maximum signal (405 nm) in the absorbance range of 1.0 to 1.4 is reached.
% inhibition of conversion of the substrate by activity of the aggrecanase in the supernatant.

[4] = target: T1, bovine factor Xa; details: standard sample used for calibration; cited from earlier work

T1 sequence (P01008 33-464 partner): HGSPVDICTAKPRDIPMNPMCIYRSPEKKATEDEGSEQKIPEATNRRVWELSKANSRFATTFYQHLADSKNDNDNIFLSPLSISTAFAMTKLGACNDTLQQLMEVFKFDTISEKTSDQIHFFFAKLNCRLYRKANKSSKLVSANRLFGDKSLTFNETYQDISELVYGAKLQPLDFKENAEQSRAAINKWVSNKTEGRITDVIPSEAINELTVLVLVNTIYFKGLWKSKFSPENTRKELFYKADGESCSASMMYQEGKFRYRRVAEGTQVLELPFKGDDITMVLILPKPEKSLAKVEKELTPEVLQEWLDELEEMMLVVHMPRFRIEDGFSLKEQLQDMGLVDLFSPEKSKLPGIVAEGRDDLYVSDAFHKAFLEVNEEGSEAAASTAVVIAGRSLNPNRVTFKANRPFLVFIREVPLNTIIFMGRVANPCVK
T1 sequence (P00743 234-492 limits assumed): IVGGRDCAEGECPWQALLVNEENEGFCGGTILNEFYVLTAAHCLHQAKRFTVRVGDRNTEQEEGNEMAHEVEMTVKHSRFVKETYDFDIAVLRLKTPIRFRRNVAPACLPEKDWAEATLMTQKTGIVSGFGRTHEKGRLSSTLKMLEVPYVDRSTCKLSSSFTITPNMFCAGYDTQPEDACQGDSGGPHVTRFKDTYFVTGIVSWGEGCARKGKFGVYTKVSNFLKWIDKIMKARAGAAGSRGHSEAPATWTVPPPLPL

With “Carboxyl-Reduced and Persulfated Chondroitin Sulfate Sodium Salt [Example 1]” as the substance, how does the “factor Xa inhibitory activity” value [1] read?
Its value is 1.2 U/mg.

What about the “inhibition of MMP-2” value [2] of the same substance?
Its value is “inhibited in a concentration-dependent manner”.

What about the “estimated IC50” value ([3]; aggrecanase, estimated) of the same substance?
Its value is about 4 ng/mL.

And the “% Conversion” value ([3]; glycosaminoglycan 0.0001 μg/ml)?
Its value is 100%.

What about the “% Conversion” value ([3]; glycosaminoglycan 0.0003 μg/ml) of the same substance?
Its value is 99.0%.

And the “% Conversion” value ([3]; glycosaminoglycan 0.001 μg/ml)?
Its value is 95.1%.

What about the “% Conversion” value ([3]; glycosaminoglycan 0.003 μg/ml) of the same substance?
The value was 69.2%.

And the “% Conversion” value ([3]; glycosaminoglycan 0.01 μg/ml)?
The value was 11.6%.

What about the “% Conversion” value ([3]; glycosaminoglycan 0.03 μg/ml) of the same substance?
Its value is 14.9%.

For Enoxaparin [reference heparin compound], which “factor Xa inhibitory activity of the reference standard” value [4] is on record?
Its value is 100 U/mg.
